How the values were obtained:
Conditions in all cases: 72 h
[1] = test system: U2OS; assay: drug sensitivity score (DSS) for viability; higher = more toxic; extreme values may be limits of the assay
[2] = test system: Caco-2; assay: as above
[3] = test system: Vero E6; assay: as above
[4] = test system: HepG2; assay: as above
[5] = test system: U2OS; assay: cell viability relative to DMSO; higher = less toxic
[6] = test system: Caco-2; assay: as above
[7] = test system: Vero E6; assay: as above
[8] = test system: HepG2; assay: as above
[9] = test system: U2OS; assay: relative viability EC50 (midpoint between 100% and the lowest measured viability); higher = less toxic
[10] = test system: Caco-2; assay: as above
[11] = test system: Vero E6; assay: as above
[12] = test system: HepG2; assay: as above
[13] = test system: Calu-3; assay: drug sensitivity score (DSS) for viability; higher = more toxic; extreme values may be limits of the assay
[14] = test system: Calu-3; assay: cell viability relative to DMSO; higher = less toxic
[15] = test system: Calu-3; assay: relative viability EC50 (midpoint between 100% and the lowest measured viability); higher = less toxic

Row | SMILES | drug sensitivity score [1] | drug sensitivity score [2] | drug sensitivity score [3] | drug sensitivity score [4] | cell viability ([5]; 1 nM) [%] | cell viability ([5]; 10 nM) [%] | cell viability ([5]; 100 nM) [%] | cell viability ([5]; 1000 nM) [%] | cell viability ([5]; 10000 nM) [%] | cell viability ([6]; 1 nM) [%] | cell viability ([6]; 10 nM) [%] | cell viability ([6]; 100 nM) [%] | cell viability ([6]; 1000 nM) [%] | cell viability ([6]; 10000 nM) [%] | cell viability ([7]; 1 nM) [%] | cell viability ([7]; 10 nM) [%] | cell viability ([7]; 100 nM) [%] | cell viability ([7]; 1000 nM) [%] | cell viability ([7]; 10000 nM) [%] | cell viability ([8]; 1 nM) [%] | cell viability ([8]; 10 nM) [%] | cell viability ([8]; 100 nM) [%] | cell viability ([8]; 1000 nM) [%] | cell viability ([8]; 10000 nM) [%] | relative viability EC50 [9] [µM] | relative viability EC50 [10] [µM] | relative viability EC50 [11] [µM] | relative viability EC50 [12] [µM] | drug sensitivity score [13] | cell viability ([14]; 1 nM) [%] | cell viability ([14]; 10 nM) [%] | cell viability ([14]; 100 nM) [%] | cell viability ([14]; 1000 nM) [%] | cell viability ([14]; 10000 nM) [%] | relative viability EC50 [15] [µM]
1 | Cc1ccc(OCCSc2ncccn2)c(Br)c1 [ZLN024] | 0 | 0 | 0 | 0 | 97.8 | 105 | 97.1 | 101 | 101 | 99.2 | 104 | 94.8 | 97 | 102 | 106 | 98.2 | 107 | 102 | 105 | 105 | 106 | 109 | 99.9 | 110 | > 10 | > 10 | > 10 | > 10 |  |  |  |  |  |  | 
2 | CCN(CCCc1ccccc1)CCCc1ccccc1 [alverine] | 0 | 0 | 0 | 1.1 | 102 | 100 | 101 | 97.8 | 102 | 101 | 93.6 | 99.2 | 97.8 | 94.8 | 97.2 | 93.4 | 100 | 97.9 | 100 | 107 | 87.3 | 96.7 | 98.1 | 76.2 | > 10 | > 10 | > 10 | > 10 |  |  |  |  |  |  | 
3 | NCc1ccccc1CC(=O)N[C@@H]1C(=O)N2C(C(=O)O)=C(CSc3nnnn3CC(=O)O)CS[C@H]12 [ceforanide] | 0 | 0 | 0 | 0 | 96.3 | 97.3 | 100 | 102 | 103 | 88.4 | 92.9 | 102 | 99.3 | 100 | 97.3 | 98 | 96.8 | 93.8 | 103 | 99.5 | 106 | 109 | 98 | 106 | > 10 | > 10 | > 10 | > 10 |  |  |  |  |  |  | 
4 | CCC1(C2=NCCN2)Cc2ccccc2O1 (configuration not stated) [efaroxan] | 0 | 0 | 0 |  | 107 | 107 | 101 | 95.8 | 101 | 102 | 96.7 | 97.1 | 90.4 | 98.7 | 102 | 101 | 101 | 98.4 | 106 |  |  |  |  |  | > 10 | > 10 | > 10 |  | 0 | 109 | 93.4 | 109 | 101 | 110 | > 10
5 | C[C@H](N[C@@H](CCc1ccccc1)C(=O)O)C(=O)N1CCC[C@H]1C(=O)O [enalaprilat] | 0 | 0 | 0 |  | 96.5 | 97.9 | 94.9 | 96.7 | 104 | 92.8 | 104 | 90.1 | 97.5 | 94.7 | 97.5 | 94.5 | 99.1 | 101 | 107 |  |  |  |  |  | > 10 | > 10 | > 10 |  | 0.2 | 101 | 101 | 105 | 89 | 97.2 | > 10
6 | CC(=O)NC[C@H]1CN(c2ccc(N3CCN(C(=O)CO)CC3)c(F)c2)C(=O)O1 [eperezolid] | 0 | 0 | 0 | 1.7 | 105 | 99.4 | 99.3 | 96.4 | 98.6 | 98.6 | 96.9 | 102 | 101 | 102 | 96.3 | 99.3 | 97.5 | 97.1 | 93.5 | 99.1 | 98.7 | 89.1 | 88.2 | 81.1 | > 10 | > 10 | > 10 | > 10 |  |  |  |  |  |  | 
7 | O=C1[C@H](CC[C@H](O)c2ccc(F)cc2)[C@@H](c2ccc(O)cc2)N1c1ccc(F)cc1 [ezetimibe] | 0 | 0 | 0 | 0.2 | 95.9 | 101 | 95.8 | 104 | 91 | 97.6 | 98.1 | 93.3 | 95.9 | 88.9 | 99.6 | 106 | 100 | 100 | 107 | 103 | 96.6 | 100 | 90.8 | 88.8 | > 10 | > 10 | > 10 | > 10 |  |  |  |  |  |  | 
8 | O=C(O)Cc1sc(-c2ccccc2)nc1-c1ccc(Cl)cc1 [fentiazac] | 0 | 0 | 0 | 0 | 99 | 98.7 | 95.2 | 93.9 | 92.4 | 100 | 98.9 | 92.6 | 97.6 | 95.3 | 99.3 | 101 | 96 | 99.7 | 92.2 | 95.3 | 103 | 97.6 | 103 | 94.9 | > 10 | > 10 | > 10 | > 10 |  |  |  |  |  |  | 
9 | N=C(N)c1ccc(-c2ccc(-c3ccc(C(=N)N)cc3)o2)cc1 [furamidine] |  | 0 | 0 | 4.1 |  |  |  |  |  | 97 | 92.8 | 98.1 | 101 | 95 | 99.7 | 97.3 | 97.9 | 97.8 | 102 | 109 | 97.2 | 96.4 | 79.9 | 59.7 |  | > 10 | > 10 |  | 0 | 92.6 | 104 | 97.1 | 96.4 | 110 | > 10
10 | O=C(CC1NCCCC1O)Cn1cnc2cc(Br)c(Cl)cc2c1=O (configuration not stated) [halofuginone] | 13.4 | 15.7 | 24.5 | 27.9 | 98.9 | 101 | 98.1 | 32.2 | 1.9 | 95 | 107 | 81.7 | 28.6 | 25.1 | 99.7 | 100 | 42 | 11.4 | 0 | 102 | 88.9 | 24.1 | 2.9 | 0.6 | 0.678 | 0.183 | 0.0842 | 0.0439 |  |  |  |  |  |  | 
11 | CCS(=O)(=O)Nc1ccc2c(c1)/C(=C(/Nc1ccc(CN3CCCCC3)cc1)c1ccccc1)C(=O)N2 [hesperadin] | 16.9 | 6.9 | 7.6 | 21.5 | 102 | 94.3 | 80 | 22.1 | 0 | 95.1 | 91.8 | 90.7 | 68.7 | 48.4 | 92.7 | 101 | 82.7 | 73.2 | 16.9 | 99.1 | 94.4 | 58.8 | 8.8 | 5.1 | 0.329 | 0.512 | 1.52 | 0.119 | 6.8 | 107 | 95.7 | 84.8 | 70.3 | 62.1 | 
12 | CC[C@H]1CN2CC[C@H]1C[C@@H]2[C@@H](O)c1ccnc2ccc(OC)cc12 [hydroquinidine] | 0 | 0.1 | 0 | 0 | 99.9 | 99.4 | 97.3 | 97.8 | 98.6 | 105 | 106 | 94.6 | 94.7 | 87.4 | 97.4 | 102 | 103 | 107 | 91 | 91.7 | 95.1 | 101 | 89.1 | 93.1 | > 10 | > 10 | > 10 | > 10 |  |  |  |  |  |  | 
13 | O=C(O)c1c(Sc2ccccc2)c2cc(Cl)ccc2n1Cc1ccc(Cl)cc1 [nTZDpa] | 0 | 0 | 0 | 0 | 96.6 | 101 | 92.1 | 96.2 | 101 | 97.1 | 97 | 105 | 96.6 | 90.4 | 99.6 | 96 | 99.5 | 95.4 | 89.8 | 96.9 | 92.1 | 96.8 | 97.3 | 90.7 | > 10 | > 10 | > 10 | > 10 |  |  |  |  |  |  | 
14 | Cc1ccnc2c1NC(=O)c1cccnc1N2C1CC1 [nevirapine] | 0 | 0 | 0 |  | 97.2 | 101 | 101 | 101 | 98.9 | 87.3 | 86.8 | 101 | 97 | 100 | 94.3 | 107 | 96.5 | 104 | 108 |  |  |  |  |  | > 10 | > 10 | > 10 |  | 0.2 | 104 | 90.6 | 109 | 96.8 | 87.8 | > 10
15 | NCCCCN [putrescine] | 0 | 0.2 | 0 | 0 | 99.2 | 97.1 | 97.6 | 93.6 | 96.7 | 118 | 102 | 102 | 89 | 93.1 | 104 | 112 | 100 | 98.1 | 90.4 | 110 | 101 | 110 | 97.3 | 93 | > 10 | > 10 | > 10 | > 10 |  |  |  |  |  |  | 
16 | Fc1ccc(Cn2c(NC3CCNCC3)nc3ccccc32)cc1 [tecastemizole] | 0 | 0.8 | 0 | 1.4 | 95 | 98 | 96.9 | 98.2 | 103 | 97.8 | 98.1 | 99 | 106 | 73.3 | 104 | 95.6 | 101 | 90 | 98.9 | 106 | 96.6 | 114 | 83.9 | 86.2 | > 10 |  | > 10 | > 10 | 0 | 90.7 | 99.2 | 107 | 99.5 | 102 | > 10
17 | CC(C)(C)NCC(O)c1ccccc1Cl (configuration not stated) [tulobuterol] | 0 | 0 | 0.3 |  | 99.7 | 95.5 | 102 | 101 | 98.6 | 93.7 | 89.8 | 88.1 | 79.8 | 95.6 | 96.9 | 98.2 | 99.7 | 96.2 | 87 |  |  |  |  |  | > 10 | > 10 | > 10 |  | 0 | 94.6 | 91.1 | 99.4 | 111 | 88.4 | > 10
